# Assays:
# HiBiT-BRM = biological target: T1, HiBiT-BRM (Homo sapiens, UniProt P51531); experiment: HiBiT-BRM cell-based degradation assay (Nano-Glo HiBiT Lytic Detection); settings: HeLa cells expressing HiBiT-BRM, 24 h; for DC50: read-out: BRM HiBit Degradation IC50
# T1 construct: expressed in transfected cells
# How it was run: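 HeLa cells stably expressing HiBiT-tagged BRM were treated for 24 h, then lysed with LgBiT-containing Nano-Glo reagent and luminescence read. % degradation scaled between DMSO (high control) and 2 μM reference BRM/BRG1 degrader (low control).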
# HiBit-BRG1 = biological target: T2, HiBit-BRG1 (Homo sapiens, UniProt P51532); experiment: HiBit-BRG1 cell-based degradation assay (Nano-Glo HiBiT Lytic Detection); settings: HeLa cells expressing HiBit-BRG1 and LgBit, 24 h; for DC50: read-out: BRG1 HiBit Degradation IC50; for Dmax: read-out: BRG1 HiBit Degradation Maximum (%)
# T2 construct: expressed in transfected cells
# T2 sequence (P51532 whole entry): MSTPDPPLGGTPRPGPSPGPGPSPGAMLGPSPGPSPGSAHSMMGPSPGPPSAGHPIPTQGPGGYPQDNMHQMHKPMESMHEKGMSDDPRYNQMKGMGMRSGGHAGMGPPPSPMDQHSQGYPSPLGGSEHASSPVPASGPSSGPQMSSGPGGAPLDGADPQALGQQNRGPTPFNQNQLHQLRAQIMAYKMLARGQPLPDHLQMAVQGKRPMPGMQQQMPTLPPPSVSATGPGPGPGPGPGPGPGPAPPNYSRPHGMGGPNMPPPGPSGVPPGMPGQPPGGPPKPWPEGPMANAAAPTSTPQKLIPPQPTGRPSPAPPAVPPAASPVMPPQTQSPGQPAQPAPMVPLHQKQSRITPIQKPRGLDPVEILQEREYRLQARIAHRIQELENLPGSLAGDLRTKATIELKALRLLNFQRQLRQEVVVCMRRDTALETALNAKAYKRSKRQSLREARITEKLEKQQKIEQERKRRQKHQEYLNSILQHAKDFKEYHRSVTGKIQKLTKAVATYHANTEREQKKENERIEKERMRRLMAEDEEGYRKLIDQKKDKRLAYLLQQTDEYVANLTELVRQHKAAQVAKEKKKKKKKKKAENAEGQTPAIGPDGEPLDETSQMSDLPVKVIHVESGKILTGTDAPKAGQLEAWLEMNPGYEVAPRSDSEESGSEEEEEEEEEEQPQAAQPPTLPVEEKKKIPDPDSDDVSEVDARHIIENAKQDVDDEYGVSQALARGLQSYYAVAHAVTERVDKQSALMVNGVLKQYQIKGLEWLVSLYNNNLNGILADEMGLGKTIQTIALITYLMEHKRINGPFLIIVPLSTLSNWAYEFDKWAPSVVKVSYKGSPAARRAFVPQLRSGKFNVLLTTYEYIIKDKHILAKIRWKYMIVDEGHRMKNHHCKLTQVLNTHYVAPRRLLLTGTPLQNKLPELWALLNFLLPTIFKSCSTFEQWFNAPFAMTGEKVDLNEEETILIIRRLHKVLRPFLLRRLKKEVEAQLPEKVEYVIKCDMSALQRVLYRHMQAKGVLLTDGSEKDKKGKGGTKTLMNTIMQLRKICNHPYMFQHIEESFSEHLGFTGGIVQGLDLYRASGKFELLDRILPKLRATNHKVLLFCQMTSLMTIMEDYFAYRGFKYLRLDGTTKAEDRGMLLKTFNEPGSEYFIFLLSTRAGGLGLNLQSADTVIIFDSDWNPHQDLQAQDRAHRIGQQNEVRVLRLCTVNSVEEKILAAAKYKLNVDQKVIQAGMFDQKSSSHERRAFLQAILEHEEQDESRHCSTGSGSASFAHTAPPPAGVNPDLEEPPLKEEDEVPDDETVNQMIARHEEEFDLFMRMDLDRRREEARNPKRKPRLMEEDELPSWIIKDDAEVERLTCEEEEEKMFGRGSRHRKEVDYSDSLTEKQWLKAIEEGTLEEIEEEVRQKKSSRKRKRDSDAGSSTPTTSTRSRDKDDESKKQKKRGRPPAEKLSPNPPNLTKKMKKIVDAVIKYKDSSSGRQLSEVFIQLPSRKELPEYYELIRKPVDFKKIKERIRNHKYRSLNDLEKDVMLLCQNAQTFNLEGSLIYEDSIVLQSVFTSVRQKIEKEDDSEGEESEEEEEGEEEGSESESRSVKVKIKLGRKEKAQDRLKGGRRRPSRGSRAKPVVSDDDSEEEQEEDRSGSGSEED
# How it was run: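 HeLa cells stably expressing HiBiT-BRG1 plus LgBit, 5000/well, treated 24 h, then lysed with Nano-Glo HiBiT lytic reagent and luminescence read. % degradation normalised between DMSO (high control) and 2 μM reference BRM/BRG1 degrader (low control).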
# T1 sequence (P51531 whole entry): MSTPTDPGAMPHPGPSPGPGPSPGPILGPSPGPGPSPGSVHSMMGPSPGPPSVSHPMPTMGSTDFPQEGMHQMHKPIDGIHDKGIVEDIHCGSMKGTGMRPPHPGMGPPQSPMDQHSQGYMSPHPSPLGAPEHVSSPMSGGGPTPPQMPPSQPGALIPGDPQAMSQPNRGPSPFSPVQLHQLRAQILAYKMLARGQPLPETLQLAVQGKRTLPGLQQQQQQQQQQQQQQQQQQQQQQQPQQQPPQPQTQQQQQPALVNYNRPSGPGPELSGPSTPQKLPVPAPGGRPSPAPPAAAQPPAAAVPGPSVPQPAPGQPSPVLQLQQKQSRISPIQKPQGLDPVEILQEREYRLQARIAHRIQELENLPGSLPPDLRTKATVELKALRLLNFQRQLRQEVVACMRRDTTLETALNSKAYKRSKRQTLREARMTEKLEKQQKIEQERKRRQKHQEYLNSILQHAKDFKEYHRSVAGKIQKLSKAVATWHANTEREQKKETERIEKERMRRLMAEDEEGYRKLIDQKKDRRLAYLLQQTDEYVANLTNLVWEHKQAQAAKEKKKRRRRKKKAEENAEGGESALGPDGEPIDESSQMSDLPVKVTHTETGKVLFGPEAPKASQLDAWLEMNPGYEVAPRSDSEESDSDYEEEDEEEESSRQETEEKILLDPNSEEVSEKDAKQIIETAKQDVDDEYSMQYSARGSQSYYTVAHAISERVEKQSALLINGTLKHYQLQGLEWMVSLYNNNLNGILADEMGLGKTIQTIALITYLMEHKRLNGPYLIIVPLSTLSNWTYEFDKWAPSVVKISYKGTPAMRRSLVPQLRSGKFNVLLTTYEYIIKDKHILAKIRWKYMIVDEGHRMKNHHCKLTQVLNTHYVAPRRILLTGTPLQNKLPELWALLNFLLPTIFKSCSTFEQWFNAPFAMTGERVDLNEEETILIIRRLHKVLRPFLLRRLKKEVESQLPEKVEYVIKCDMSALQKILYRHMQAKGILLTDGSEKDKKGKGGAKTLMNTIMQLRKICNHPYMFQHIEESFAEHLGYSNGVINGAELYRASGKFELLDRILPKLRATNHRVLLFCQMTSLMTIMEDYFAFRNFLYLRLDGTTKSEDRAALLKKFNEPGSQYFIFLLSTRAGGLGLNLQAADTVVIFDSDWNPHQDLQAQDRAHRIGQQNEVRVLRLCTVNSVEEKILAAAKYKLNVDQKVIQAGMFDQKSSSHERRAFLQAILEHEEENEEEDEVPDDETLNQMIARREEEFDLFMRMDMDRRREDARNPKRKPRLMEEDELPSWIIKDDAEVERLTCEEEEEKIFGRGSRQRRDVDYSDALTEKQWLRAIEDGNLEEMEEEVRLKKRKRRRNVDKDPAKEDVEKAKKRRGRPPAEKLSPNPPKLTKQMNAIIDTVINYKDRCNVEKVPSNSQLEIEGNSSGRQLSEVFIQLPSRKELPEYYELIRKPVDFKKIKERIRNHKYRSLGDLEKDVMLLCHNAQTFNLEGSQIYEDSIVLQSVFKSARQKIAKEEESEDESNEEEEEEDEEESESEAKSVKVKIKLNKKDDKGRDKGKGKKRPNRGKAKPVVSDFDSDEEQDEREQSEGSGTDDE
DC50 (HiBiT-BRM),DC50 (HiBit-BRG1),Dmax (HiBit-BRG1),Structure (SMILES),BRM HiBit Degradation Maximum (%) (HiBiT-BRM)
> 10 nM,> 1000 nM,< 50%,"Nc1nnc(-c2ccccc2O)cc1OCCc1ccc(CNCCCC2CN(c3ccc4c(c3)C(=O)N(C3CCC(=O)NC3=O)C4=O)C2)cc1 (centres unmarked) [Compound 123, 5-[3-[3-([[4-(2-[[3-amino-6-(2-hydroxyphenyl)pyridazin-4-yl]oxy]ethyl)phenyl]methyl]amino)propyl]azetidin-1-yl]-2-(2,6-dioxopiperidin-3-yl)isoindole-1,3-dione]",B (“B” indicates maximum degradation ≥50%)
> 1000 nM,> 1000 nM,< 50%,"Nc1nnc(-c2cccc(Cl)c2O)cc1OCCc1ccc(CNCCCCCOc2cccc3c2C(=O)N(C2CCC(=O)NC2=O)C3=O)cc1 (centres unmarked) [Compound 124, 4-((5-((4-(2-((3-amino-6-(3-chloro-2-hydroxyphenyl)pyridazin-4-yl)oxy)ethyl)benzyl)amino)pentyl)oxy)-2-(2,6-dioxopiperidin-3-yl)isoindoline-1,3-dione]",C (“C” indicates maximum degradation <50%)
> 1000 nM,> 1000 nM,> 50%,"Nc1nnc(-c2ccccc2O)cc1OCCc1ccc(CNC(=O)CCCCNc2ccc3nnn(C4CCC(=O)NC4=O)c(=O)c3c2)cc1 (centres unmarked) [Compound 125, N-(4-(2-((3-amino-6-(2-hydroxyphenyl)pyridazin-4-yl)oxy)ethyl)benzyl)-5-((3-(2,6-dioxopiperidin-3-yl)-4-oxo-3,4-dihydrobenzo[d][1,2,3]triazin-6-yl)amino)pentanamide]",C (“C” indicates maximum degradation <50%)
> 1000 nM,> 1000 nM,< 50%,"Nc1nnc(-c2ccccc2O)cc1OCCc1ccc(CN2CCN(CCOc3cccc4c3C(=O)N(C3CCC(=O)NC3=O)C4=O)CC2)cc1 (centres unmarked) [Compound 126, 4-[2-(4-[[4-(2-[[3-amino-6-(2-hydroxyphenyl)pyridazin-4-yl]oxy]ethyl)phenyl]methyl]piperazin-1-yl)ethoxy]-2-(2,6-dioxopiperidin-3-yl)isoindole-1,3-dione]",C (“C” indicates maximum degradation <50%)
> 1000 nM,> 1000 nM,< 50%,"Nc1nnc(-c2ccccc2O)cc1OCCc1ccc(CN2CC(CCCOc3cccc4c3C(=O)N(C3CCC(=O)NC3=O)C4=O)C2)cc1 (centres unmarked) [Compound 127, 4-[3-(1-[[4-(2-[[3-amino-6-(2-hydroxyphenyl)pyridazin-4-yl]oxy]ethyl)phenyl]methyl]azetidin-3-yl)propoxy]-2-(2,6-dioxopiperidin-3-yl)isoindole-1,3-dione]",C (“C” indicates maximum degradation <50%)
> 1000 nM,> 1000 nM,< 50%,"Nc1nnc(-c2ccccc2O)cc1OCCc1ccc(CNC(=O)CCCCOc2cccc3c2CN(C2CCC(=O)NC2=O)C3=O)cc1 (centres unmarked) [Compound 130, N-(4-(2-((3-amino-6-(2-hydroxyphenyl)pyridazin-4-yl)oxy)ethyl)benzyl)-5-((2-(2,6-dioxopiperidin-3-yl)-1-oxoisoindolin-4-yl)oxy)pentanamide]",C (“C” indicates maximum degradation <50%)
> 100 nM,> 100 nM,> 50%,"Cc1ncsc1-c1ccc(CNC(=O)[C@@H]2C[C@@H](O)CN2C(=O)[C@@H](NC(=O)CCCCCCCCCNCc2ccc(CCN(C)c3cc(-c4ccccc4O)nnc3N)cc2)C(C)(C)C)cc1 [Compound 131, (2S,4R)-1-((S)-2-(10-((4-(2-((3-amino-6-(2-hydroxyphenyl)pyridazin-4-yl)(methyl)amino)ethyl)benzyl)amino)decanamido)-3,3-dimethylbutanoyl)-4-hydroxy-N-(4-(4-methylthiazol-5-yl)benzyl)pyrrolidine-2-carboxamide]",A (“A” indicates maximum degradation ≥75%)
> 100 nM,> 1000 nM,> 50%,"Cc1ncsc1-c1ccc(CNC(=O)[C@@H]2C[C@@H](O)CN2C(=O)[C@@H](NC(=O)CCCCCCCCC(=O)NCc2ccc(CCN(C)c3cc(-c4ccccc4O)nnc3N)cc2)C(C)(C)C)cc1 [Compound 132, N′-[[4-(2-[[3-amino-6-(2-hydroxyphenyl)pyridazin-4-yl](methyl)amino]ethyl)phenyl]methyl]-N-[(2S)-1-[(2S,4R)-4-hydroxy-2-([[4-(4-methyl-1,3-thiazol-5-yl)phenyl]methyl]carbamoyl)pyrrolidin-1-yl]-3,3-dimethyl-1-oxobutan-2-yl]decanediamide]",A (“A” indicates maximum degradation ≥75%)
> 100 nM,> 1000 nM,< 50%,"Cc1ncsc1-c1ccc(CNC(=O)[C@@H]2C[C@@H](O)CN2C(=O)[C@@H](NC(=O)CCCCCCCCCCCCCCCC(=O)NCc2ccc(CCN(C)c3cc(-c4ccccc4O)nnc3N)cc2)C(C)(C)C)cc1 [Compound 133, N1-(4-(2-((3-amino-6-(2-hydroxyphenyl)pyridazin-4-yl)(methyl)amino)ethyl)benzyl)-N17-((S)-1-((2S,4R)-4-hydroxy-2-((4-(4-methylthiazol-5-yl)benzyl)carbamoyl)pyrrolidin-1-yl)-3,3-dimethyl-1-oxobutan-2-yl)heptadecanediamide]",B (“B” indicates maximum degradation ≥50%)
> 100 nM,> 1000 nM,< 50%,"Cc1ncsc1-c1ccc(CNC(=O)[C@@H]2C[C@@H](O)CN2C(=O)[C@@H](NC(=O)CCCCCCCCCNC(=O)c2ccc(CCNc3cc(-c4ccccc4O)nnc3N)cc2)C(C)(C)C)cc1 [Compound 134, (2S,4R)-1-[(2S)-2-(10-[[4-(2-[[3-amino-6-(2-hydroxyphenyl)pyridazin-4-yl]amino]ethyl)phenyl]formamido]decanamido)-3,3-dimethylbutanoyl]-4-hydroxy-N-[[4-(4-methyl-1,3-thiazol-5-yl)phenyl]methyl]pyrrolidine-2-carboxamide]",B (“B” indicates maximum degradation ≥50%)
> 1000 nM,> 1000 nM,< 50%,"Nc1nnc(-c2ccccc2O)cc1OCCc1ccc(CNC(=O)CCCCNc2ccc3c(c2)C(=O)N(C2CCC(=O)NC2=O)C3)cc1 (centres unmarked) [Compound 135, N-[[4-(2-[[3-amino-6-(2-hydroxyphenyl)pyridazin-4-yl]oxy]ethyl)phenyl]methyl]-5-[[2-(2,6-dioxopiperidin-3-yl)-3-oxo-1H-isoindol-5-yl]amino]pentanamide]",C (“C” indicates maximum degradation <50%)

Structure (SMILES),DC50 (HiBiT-BRM),DC50 (HiBit-BRG1),Dmax (HiBit-BRG1),BRM HiBit Degradation Maximum (%) (HiBiT-BRM)
"Nc1nnc(-c2ccccc2O)cc1OCCc1ccc(CNC(=O)CCCCOc2ccc3c(c2)C(=O)N(C2CCC(=O)NC2=O)C3)cc1 (centres unmarked) [Compound 128, N-(4-(2-((3-amino-6-(2-hydroxyphenyl)pyridazin-4-yl)oxy)ethyl)benzyl)-5-((2-(2,6-dioxopiperidin-3-yl)-3-oxoisoindolin-5-yl)oxy)pentanamide]",> 1000 nM,> 1000 nM,–,C (“C” indicates maximum degradation <50%)
"Nc1nnc(-c2ccccc2O)cc1OCCc1ccc(CNC(=O)CCCCOc2ccc3c(c2)CN(C2CCC(=O)NC2=O)C3=O)cc1 (centres unmarked) [Compound 129, N-(4-(2-((3-amino-6-(2-hydroxyphenyl)pyridazin-4-yl)oxy)ethyl)benzyl)-5-((2-(2,6-dioxopiperidin-3-yl)-1-oxoisoindolin-5-yl)oxy)pentanamide]",> 1000 nM,> 1000 nM,–,C (“C” indicates maximum degradation <50%)
